Experimental data taken from PubChem BioAssay AID1963831 (Molecular Pharmacology Branch, DTP, NCI, 2024).
Blank lines part the entries; values can stand above or below the compound they belong to.

Test system: 889142-216-R-J1-PDC complex spheroid viability
Assay: Anticancer human tumor 889142-216-R-J1-PDC patient-derived bladder carcinoma cell line growth inhibition [POLQ]
Conditions: for IC50: curve of first compound; for viability, T/C: stronger effect = lower value
In short: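 Patient-derived tumour cells were co-cultured with HUVEC and mesenchymal stem cells as multicellular spheroids at 37 °C. They were treated with POLQ inhibitors (novobiocin, ART-558, RP6685) alone or combined with other agents. Top concentrations were at or near clinical Cmax (otherwise 10 microM; SN-38 at 1 microM), decreasing in half-log steps.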

[1] = second compound 0.0316 µM, first compound 0.0316 µM
[2] = second compound 0.0316 µM, first compound 0.1 µM
[3] = second compound 0.1 µM, first compound 0.0316 µM
[4] = second compound 0.1 µM, first compound 0.1 µM
[5] = second compound 0.316 µM, first compound 0.0316 µM
[6] = second compound 0.316 µM, first compound 0.1 µM
[7] = second compound 1 µM, first compound 0.0316 µM
[8] = second compound 1 µM, first compound 0.1 µM
[9] = second compound 3.16 µM, first compound 0.0316 µM
[10] = second compound 3.16 µM, first compound 0.1 µM
[11] = second compound 10 µM, first compound 0.0316 µM
[12] = second compound 10 µM, first compound 0.1 µM
[13] = second compound 0.0316 µM, first compound 0.316 µM
[14] = second compound 0.0316 µM, first compound 1 µM
[15] = second compound 0.0316 µM, first compound 3.16 µM
[16] = second compound 0.0316 µM, first compound 10 µM
[17] = second compound 0.1 µM, first compound 0.316 µM
[18] = second compound 0.1 µM, first compound 1 µM
[19] = second compound 0.1 µM, first compound 3.16 µM
[20] = second compound 0.1 µM, first compound 10 µM
[21] = second compound 0.316 µM, first compound 0.316 µM
[22] = second compound 0.316 µM, first compound 1 µM
[23] = second compound 0.316 µM, first compound 3.16 µM
[24] = second compound 0.316 µM, first compound 10 µM
[25] = second compound 1 µM, first compound 0.316 µM
[26] = second compound 1 µM, first compound 1 µM
[27] = second compound 1 µM, first compound 3.16 µM
[28] = second compound 1 µM, first compound 10 µM
[29] = second compound 3.16 µM, first compound 0.316 µM
[30] = second compound 3.16 µM, first compound 1 µM
[31] = second compound 3.16 µM, first compound 3.16 µM
[32] = second compound 3.16 µM, first compound 10 µM
[33] = second compound 10 µM, first compound 0.316 µM
[34] = second compound 10 µM, first compound 1 µM
[35] = second compound 10 µM, first compound 3.16 µM
[36] = second compound 10 µM, first compound 10 µM
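Further: spheroids exposed to compounds for seven days.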
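Wherever viability, T/C is given: 100% = DMSO vehicle control viability.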

- IC50 (second compound 0.0316 µM): > 0.1 µM
- IC50 (second compound 0.1 µM): > 0.1 µM
- IC50 (second compound 0.316 µM): > 0.1 µM
- IC50 (second compound 1 µM): > 0.1 µM
- IC50 (second compound 3.16 µM): > 0.1 µM
- IC50 (second compound 10 µM): 0.0647 µM
Structure (SMILES): CC[C@@]1(O)C(=O)OCc2c1cc1n(c2=O)Cc2cc3c(CN(C)C)c(O)ccc3nc2-1 + Cc1cccc(N(C)C(=O)C2C(O)CCN2c2nc(C)cc(C(F)(F)F)c2C#N)c1
- viability, T/C (second compound 0.0316 µM, first compound 0.000316 µM): 103%
- viability, T/C (second compound 0.0316 µM, first compound 0.001 µM): 103%
- viability, T/C (second compound 0.0316 µM, first compound 0.00316 µM): 84.2%
- viability, T/C (second compound 0.0316 µM, first compound 0.01 µM): 76.5%
- viability, T/C [1]: 71.2%
- viability, T/C [2]: 56.8%
- viability, T/C (second compound 0.1 µM, first compound 0.000316 µM): 96%
- viability, T/C (second compound 0.1 µM, first compound 0.001 µM): 115%
- viability, T/C (second compound 0.1 µM, first compound 0.00316 µM): 109%
- viability, T/C (second compound 0.1 µM, first compound 0.01 µM): 83.7%
- viability, T/C [3]: 73%
- viability, T/C [4]: 58.9%
- viability, T/C (second compound 0.316 µM, first compound 0.000316 µM): 97.8%
- viability, T/C (second compound 0.316 µM, first compound 0.001 µM): 111%
- viability, T/C (second compound 0.316 µM, first compound 0.00316 µM): 84.4%
- viability, T/C (second compound 0.316 µM, first compound 0.01 µM): 91.8%
- viability, T/C [5]: 72.6%
- viability, T/C [6]: 56.6%
- viability, T/C (second compound 1 µM, first compound 0.000316 µM): 100%
- viability, T/C (second compound 1 µM, first compound 0.001 µM): 121%
- viability, T/C (second compound 1 µM, first compound 0.00316 µM): 93.2%
- viability, T/C (second compound 1 µM, first compound 0.01 µM): 82.2%
- viability, T/C [7]: 56.2%
- viability, T/C [8]: 61.2%
- viability, T/C (second compound 3.16 µM, first compound 0.000316 µM): 118%
- viability, T/C (second compound 3.16 µM, first compound 0.001 µM): 103%
- viability, T/C (second compound 3.16 µM, first compound 0.00316 µM): 87.3%
- viability, T/C (second compound 3.16 µM, first compound 0.01 µM): 84%
- viability, T/C [9]: 59.2%
- viability, T/C [10]: 57.9%
- viability, T/C (second compound 10 µM, first compound 0.000316 µM): 73.2%
- viability, T/C (second compound 10 µM, first compound 0.001 µM): 104%
- viability, T/C (second compound 10 µM, first compound 0.00316 µM): 75%
- viability, T/C (second compound 10 µM, first compound 0.01 µM): 68.3%
- viability, T/C [11]: 52.8%
- viability, T/C [12]: 48%

Structure (SMILES): CC1COCCN1c1cc(C2(S(C)(=N)=O)CC2)nc(-c2ccnc3[nH]ccc23)n1 (stereo unspecified) + COC1C(OC(N)=O)C(O)C(Oc2ccc3c(O)c(NC(=O)c4ccc(O)c(CC=C(C)C)c4)c(=O)oc3c2C)OC1(C)C
- IC50 (second compound 0.0316 µM): 1.93 µM
- IC50 (second compound 0.1 µM): 1.8 µM
- IC50 (second compound 0.316 µM): 0.996 µM
- IC50 (second compound 1 µM): 0.977 µM
- IC50 (second compound 3.16 µM): 1.96 µM
- IC50 (second compound 10 µM): 1.82 µM
- viability, T/C [1]: 99%
- viability, T/C [2]: 93.9%
- viability, T/C [13]: 71.5%
- viability, T/C [14]: 59.8%
- viability, T/C [15]: 42.9%
- viability, T/C [16]: 40.4%
- viability, T/C [3]: 90.8%
- viability, T/C [4]: 102%
- viability, T/C [17]: 82.9%
- viability, T/C [18]: 56.6%
- viability, T/C [19]: 46.1%
- viability, T/C [20]: 39.8%
- viability, T/C [5]: 84.3%
- viability, T/C [6]: 92.8%
- viability, T/C [21]: 80.9%
- viability, T/C [22]: 49.7%
- viability, T/C [23]: 49.6%
- viability, T/C [24]: 38.9%
- viability, T/C [7]: 83.4%
- viability, T/C [8]: 131%
- viability, T/C [25]: 73.6%
- viability, T/C [26]: 60.5%
- viability, T/C [27]: 47.6%
- viability, T/C [28]: 40.4%
- viability, T/C [9]: 100%
- viability, T/C [10]: 98%
- viability, T/C [29]: 85.6%
- viability, T/C [30]: 55.4%
- viability, T/C [31]: 46.2%
- viability, T/C [32]: 45.2%
- viability, T/C [11]: 103%
- viability, T/C [12]: 84.2%
- viability, T/C [33]: 87.3%
- viability, T/C [34]: 53%
- viability, T/C [35]: 49.5%
- viability, T/C [36]: 43.9%

Structure (SMILES): COc1cc2cc(C(=O)CCC(=O)O)sc2cc1OC + Cc1cccc(N(C)C(=O)C2C(O)CCN2c2nc(C)cc(C(F)(F)F)c2C#N)c1
- IC50 (second compound 0.0316 µM): > 10 µM
- IC50 (second compound 0.1 µM): > 10 µM
- IC50 (second compound 0.316 µM): > 10 µM
- IC50 (second compound 1 µM): > 10 µM
- IC50 (second compound 3.16 µM): > 10 µM
- IC50 (second compound 10 µM): > 10 µM
- viability, T/C [1]: 85.5%
- viability, T/C [2]: 127%
- viability, T/C [13]: 89.6%
- viability, T/C [14]: 99.1%
- viability, T/C [15]: 104%
- viability, T/C [16]: 76.6%
- viability, T/C [3]: 76.5%
- viability, T/C [4]: 101%
- viability, T/C [17]: 92.7%
- viability, T/C [18]: 115%
- viability, T/C [19]: 104%
- viability, T/C [20]: 90.6%
- viability, T/C [5]: 109%
- viability, T/C [6]: 92.6%
- viability, T/C [21]: 72.3%
- viability, T/C [22]: 104%
- viability, T/C [23]: 132%
- viability, T/C [24]: 74.5%
- viability, T/C [7]: 100%
- viability, T/C [8]: 114%
- viability, T/C [25]: 97.9%
- viability, T/C [26]: 96.9%
- viability, T/C [27]: 102%
- viability, T/C [28]: 66.4%
- viability, T/C [9]: 96.8%
- viability, T/C [10]: 85.8%
- viability, T/C [29]: 89.7%
- viability, T/C [30]: 94.4%
- viability, T/C [31]: 104%
- viability, T/C [32]: 78.9%
- viability, T/C [11]: 108%
- viability, T/C [12]: 88.5%
- viability, T/C [33]: 78.5%
- viability, T/C [34]: 80.1%
- viability, T/C [35]: 72.3%
- viability, T/C [36]: 65.6%
